The numbers were not newly measured in PubChem BioAssay AID1259409 (Chemical Carcinogenesis Research Information System (CCRIS), 2018), which cites them from elsewhere.

For the data set, the system named is rodent chemically induced tumor inhibition, incidence and multiplicity. Nature of the data set: CCRIS tumor inhibitor studies. To be noted: Promoter: NONE USED.

As for `CC1=C(/C=C/C(C)=C/C=C/C(C)=C/C=C/C=C(C)/C=C/C=C(C)/C=C/C2=C(C)C(=O)CCC2(C)C)C(C)(C)CCC1=O`, the “tumour outcome (control, treated, inhibition, significance)” value was 4/24 (17%), 0/17 (0%), 100%, p<0.05 (Carcinogen: 4-NITROQUINOLINE-1-OXIDE, 56-57-5, Dose [Inhibitor]: 0, 100 PPM IN DIET FOR 10 WK BEGINNING PRIOR TO CARCINOGEN TREATMENT (STUDY DURATION: 32 WK), Route [Inhibitor]: ORAL, Species: RAT, Strain/Sex: F344/MALE, Target Tissue: Type of Lesion: TONGUE: PAPILLOMA, Dose [Carcinogen]: 20 PPM IN DRINKING WATER FOR 8 WK); 13/24 (54%), 0/17 (0%), 100%, p<0.05 (Carcinogen: 4-NITROQUINOLINE-1-OXIDE, 56-57-5, Dose [Inhibitor]: 0, 100 PPM IN DIET FOR 10 WK BEGINNING PRIOR TO CARCINOGEN TREATMENT (STUDY DURATION: 32 WK), Route [Inhibitor]: ORAL, Species: RAT, Strain/Sex: F344/MALE, Target Tissue: Type of Lesion: TONGUE: SQUAMOUS CELL CARCINOMA, Dose [Carcinogen]: 20 PPM IN DRINKING WATER FOR 8 WK); 4/24 (17%), 1/19 (5%), 71%, p<0.05 (Carcinogen: 4-NITROQUINOLINE-1-OXIDE, 56-57-5, Dose [Inhibitor]: 0, 100 PPM IN DIET FOR 22 WK BEGINNING 1 WK POST CARCINOGEN TREATMENT (STUDY DURATION: 32 WK), Route [Inhibitor]: ORAL, Species: RAT, Strain/Sex: F344/MALE, Target Tissue: Type of Lesion: TONGUE: PAPILLOMA, Dose [Carcinogen]: 20 PPM IN DRINKING WATER FOR 8 WK); 13/24 (54%), 1/19 (5%), 91%, p<0.05 (Carcinogen: 4-NITROQUINOLINE-1-OXIDE, 56-57-5, Dose [Inhibitor]: 0, 100 PPM IN DIET FOR 22 WK BEGINNING 1 WK POST CARCINOGEN TREATMENT (STUDY DURATION: 32 WK), Route [Inhibitor]: ORAL, Species: RAT, Strain/Sex: F344/MALE, Target Tissue: Type of Lesion: TONGUE: SQUAMOUS CELL CARCINOMA, Dose [Carcinogen]: 20 PPM IN DRINKING WATER FOR 8 WK); 93%, 80%, 14%, not significant (Carcinogen: 7,12-DIMETHYLBENZ[A]ANTHRACENE, 57-97-6, Dose [Inhibitor]: 0, 1130 MG/KG OF DIET FROM DAY 34 TO 54 OF AGE (STUDY DURATION: 200 D), Route [Inhibitor]: ORAL, Species: RAT, Strain/Sex: SPRAGUE-DAWLEY/FEMALE, Target Tissue: Type of Lesion: MAMMARY GLAND: ADENOCARCINOMA, Dose [Carcinogen]: 15 MG/RAT ONCE AT 55 D OF AGE); 28%, 30%, -7%, not calculated (Carcinogen: 7,12-DIMETHYLBENZ[A]ANTHRACENE, 57-97-6, Dose [Inhibitor]: 0, 1130 MG/KG OF DIET FROM DAY 34 TO 54 OF AGE (STUDY DURATION: 200 D), Route [Inhibitor]: ORAL, Species: RAT, Strain/Sex: SPRAGUE-DAWLEY/FEMALE, Target Tissue: Type of Lesion: MAMMARY GLAND: BENIGN TUMORS, Dose [Carcinogen]: 15 MG/RAT ONCE AT 55 D OF AGE). The “tumour outcome (control, treated, inhibition, significance)” value is, setting by setting: (Carcinogen: 7,12-DIMETHYLBENZ[A]ANTHRACENE, 57-97-6, Dose [Inhibitor]: 0, 3390 MG/KG OF DIET FROM DAY 34 TO 54 OF AGE (STUDY DURATION: 200 D), Route [Inhibitor]: ORAL, Species: RAT, Strain/Sex: SPRAGUE-DAWLEY/FEMALE, Target Tissue: Type of Lesion: MAMMARY GLAND: ADENOCARCINOMA, Dose [Carcinogen]: 15 MG/RAT ONCE AT 55 D OF AGE) 93%, 67%, 28%, p<0.05; (Carcinogen: 7,12-DIMETHYLBENZ[A]ANTHRACENE, 57-97-6, Dose [Inhibitor]: 0, 3390 MG/KG OF DIET FROM DAY 34 TO 54 OF AGE (STUDY DURATION: 200 D), Route [Inhibitor]: ORAL, Species: RAT, Strain/Sex: SPRAGUE-DAWLEY/FEMALE, Target Tissue: Type of Lesion: MAMMARY GLAND: BENIGN TUMORS, Dose [Carcinogen]: 15 MG/RAT ONCE AT 55 D OF AGE) 28%, 40%, -43%, not calculated; (Carcinogen: 7,12-DIMETHYLBENZ[A]ANTHRACENE, 57-97-6, Dose [Inhibitor]: 140 UG (1.5 MG/KG BW) IN 0.4 ML MINERAL OIL 3/WK FOR 28 WK (STUDY DURATION: 28 WK), Route [Inhibitor]: ORAL, Species: HAMSTER, Strain/Sex: SYRIAN/MALE, Target Tissue: Type of Lesion: SKIN: CARCINOMA, Dose [Carcinogen]: 0.1% IN HEAVY MINERAL OIL APPLIED TO BUCCAL POUCH 3/WK FOR 28 WK) 20/20 (100%), 2/20 (10%), 90%, not calculated; (Carcinogen: 7,12-DIMETHYLBENZ[A]ANTHRACENE, 57-97-6, Dose [Inhibitor]: 250 MG/KG IN DIET FOR 6 WK PRIOR TO CARCINOGEN DOSE AND CONTINUING FOR 21-22 WK POST CARCINOGEN DOSE (STUDY DURATION: 28, Route [Inhibitor]: ORAL, Species: RAT, Strain/Sex: SPRAGUE-DAWLEY/MALE, Target Tissue: Type of Lesion: SALIVARY GLAND: TUMOR, Dose [Carcinogen]: 1 MG IN 20 µL OLIVE OIL INJECTED INTO SUBMANDIBULAR GLAND ONCE) 20/28 (71%), 21/30 (70%), 1%, not significant; (Carcinogen: BENZO[A]PYRENE, 50-32-8, Dose [Inhibitor]: 0, 4.7 MICROMOLAR/D IN 0.1 ML PEANUT OIL BEGINNING 2 WK PRIOR TO CARCINOGEN TREATMENT AND CONTINUING TO 2 WK POST CARCIN, Route [Inhibitor]: GAVAGE, Species: MOUSE, Strain/Sex: SWISS/FEMALE, Target Tissue: Type of Lesion: FORESTOMACH: TUMOR, Dose [Carcinogen]: 1 MG 2/WK IN 0.1 ML PEANUT OIL FOR 4 WK) 20/20 (100%), 4/20 (20%), 80%, p<0.001; (Carcinogen: N-BUTYL-N-(4-HYDROXYBUTYL)NITROSAMINE, 3817-11-6, Dose [Inhibitor]: 0, 0.1% IN DIET BEGINNING 5 WK PRIOR TO CARCINOGEN TREATMENT AND CONTINUING FOR DURATION OF STUDY (STUDY DURATION: 7 MO), Route [Inhibitor]: ORAL, Species: MOUSE, Strain/Sex: B6D2F1/MALE, Target Tissue: Type of Lesion: BLADDER: CARCINOMA IN SITU, Dose [Carcinogen]: 5 MG IN SALINE SOLUTION 2/WK FOR 9 WK) 7/24 (29%), 5/24 (21%), 28%, not calculated. The “tumour outcome (control, treated, inhibition, significance)” value is, setting by setting: (Carcinogen: N-BUTYL-N-(4-HYDROXYBUTYL)NITROSAMINE, 3817-11-6, Dose [Inhibitor]: 0, 0.1% IN DIET BEGINNING 5 WK PRIOR TO CARCINOGEN TREATMENT AND CONTINUING FOR DURATION OF STUDY (STUDY DURATION: 7 MO), Route [Inhibitor]: ORAL, Species: MOUSE, Strain/Sex: B6D2F1/MALE, Target Tissue: Type of Lesion: BLADDER: TRANSITIONAL CELL CARCINOMA, Dose [Carcinogen]: 5 MG IN SALINE SOLUTION 2/WK FOR 9 WK) 8/24 (33%), 10/24 (42%), -27%, not calculated; (Carcinogen: N-BUTYL-N-(4-HYDROXYBUTYL)NITROSAMINE, 3817-11-6, Dose [Inhibitor]: 0, 0.1% IN DIET BEGINNING 5 WK PRIOR TO CARCINOGEN TREATMENT AND CONTINUING FOR DURATION OF STUDY (STUDY DURATION: 7 MO), Route [Inhibitor]: ORAL, Species: MOUSE, Strain/Sex: B6D2F1/MALE, Target Tissue: Type of Lesion: BLADDER: TUMOR, Dose [Carcinogen]: 5 MG IN SALINE SOLUTION 2/WK FOR 9 WK) 15/24 (63%), 15/24 (63%), 0%, not significant; (Carcinogen: N-BUTYL-N-(4-HYDROXYBUTYL)NITROSAMINE, 3817-11-6, Dose [Inhibitor]: 0, 50 PPM IN DRINKING WATER FOR 2O WK BEGINNING 1 WK POST CARCINOGEN TREATMENT (STUDY DURATION: 41 WK), Route [Inhibitor]: ORAL, Species: MOUSE, Strain/Sex: ICR/MALE, Target Tissue: Type of Lesion: URINARY BLADDER: CARCINOMA, Dose [Carcinogen]: 250 PPM IN DRINKING WATER FOR 20 WK) 15/36 (42%), 10/31 (33%), 21%, not significant; (Carcinogen: N-BUTYL-N-(4-HYDROXYBUTYL)NITROSAMINE, 3817-11-6, Dose [Inhibitor]: 0, 50 PPM IN DRINKING WATER FOR 20 WK BEGINNING 1 WK POST CARCINOGEN TREATMENT (STUDY DURATION: 41 WK), Route [Inhibitor]: ORAL, Species: MOUSE, Strain/Sex: ICR/MALE, Target Tissue: Type of Lesion: URINARY BLADDER: PAPILLOMA, Dose [Carcinogen]: 250 PPM IN DRINKING WATER FOR 20 WK) 2/36 (6%), 3/31 (10%), -67%, not significant; (Carcinogen: N-METHYL-N-NITROSOUREA, 684-93-5, Dose [Inhibitor]: 0, 1130 MG/KG OF DIET BEGINNING 2 D POST CARCINOGEN DOSE AND CONTINUING FOR DURATION OF STUDY (STUDY DURATION: 90 D), Route [Inhibitor]: ORAL, Species: RAT, Strain/Sex: SPRAGUE-DAWLEY/FEMALE, Target Tissue: Type of Lesion: MAMMARY GLAND: ADENOCARCINOMA, Dose [Carcinogen]: 45 MG/KG BW ONCE AT 50 D OF AGE) 100%, 100%, 0%, not significant; (Carcinogen: N-METHYL-N-NITROSOUREA, 684-93-5, Dose [Inhibitor]: 0, 3390 MG/KG OF DIET BEGINNING 2 D POST CARCINOGEN DOSE AND CONTINUING FOR DURATION OF STUDY (STUDY DURATION: 90 D), Route [Inhibitor]: ORAL, Species: RAT, Strain/Sex: SPRAGUE-DAWLEY/FEMALE, Target Tissue: Type of Lesion: MAMMARY GLAND: ADENOCARCINOMA, Dose [Carcinogen]: 45 MG/KG BW ONCE AT 50 D OF AGE) 100%, 90%, 10%, not calculated.
